According to PubChem BioAssay AID248 (DTP/NCI, 2004):
Several values for one entry are separate records, joined by “and”; a condition that tells them apart may be missing. Equal values may be shown once. Inconclusive results and toxic doses are left out. Peptide text beside a SMILES is read from it. * marks the point of attachment. Cbz = O=C(OCc1ccccc1)*

Tested on: L1210 leukemia ip in BDF1 mice, survival T/C
Test: NCI In Vivo Anticancer Drug Screen. Data for tumor model L1210 Leukemia (intraperitoneal) in B6D2F1 (BDF1) mice
Details: endpoint: mean survival time, higher = longer survival
Summary of the method: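 Transplanted-tumor mice were given test agent; controls received vehicle only. Survival readings from the two groups were divided (treated over control).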

[1] = dose: 100.0 mg/kg/injection, schedule: Q04DX003 (ip), vehicle: other
[2] = dose: 100.0 mg/kg/injection, schedule: Q01DX001 (ip), vehicle: saline
[3] = dose: 200.0 mg/kg/injection, schedule: Q01DX001 (ip), vehicle: saline
[4] = dose: 400.0 mg/kg/injection, schedule: Q01DX001 (ip), vehicle: saline
[5] = dose: 100.0 mg/kg/injection, schedule: Q01DX001 (ip), vehicle: other
[6] = dose: 100.0 mg/kg/injection, schedule: Q04DX003 (ip), vehicle: Klucel (hydroxypropylcellulose) (HPC)
[7] = dose: 200.0 mg/kg/injection, schedule: Q04DX003 (ip), vehicle: Klucel (hydroxypropylcellulose) (HPC)
[8] = dose: 400.0 mg/kg/injection, schedule: Q04DX003 (ip), vehicle: Klucel (hydroxypropylcellulose) (HPC)
[9] = dose: 100.0 mg/kg/injection, schedule: Q01DX009 (ip), vehicle: saline
[10] = dose: 100.0 mg/kg/injection, schedule: Q04DX003 (ip), vehicle: saline
[11] = dose: 200.0 mg/kg/injection, schedule: Q01DX009 (ip), vehicle: saline
[12] = dose: 400.0 mg/kg/injection, schedule: Q01DX009 (ip), vehicle: saline
[13] = dose: 100.0 mg/kg/injection, schedule: Q01DX001 (ip), vehicle: carboxymethylcellulose (CMC)
[14] = dose: 200.0 mg/kg/injection, schedule: Q01DX001 (ip), vehicle: carboxymethylcellulose (CMC)
[15] = dose: 400.0 mg/kg/injection, schedule: Q01DX001 (ip), vehicle: carboxymethylcellulose (CMC)

O/N=C1\CCCC\C1=N/O.O/N=C1\CCCC\C1=N/O.[Pd]
T/C (dose: 100.0 mg/kg/injection, schedule: Q01DX009 (ip), vehicle: other): 94 % of control | T/C [1]: 102 % of control | T/C (dose: 200.0 mg/kg/injection, schedule: Q01DX009 (ip), vehicle: other): 107 % of control | T/C (dose: 200.0 mg/kg/injection, schedule: Q04DX003 (ip), vehicle: other): 98 % of control | T/C (dose: 400.0 mg/kg/injection, schedule: Q01DX009 (ip), vehicle: other): 91 % of control | T/C (dose: 400.0 mg/kg/injection, schedule: Q04DX003 (ip), vehicle: other): 90 % of control

O=C1c2cccc(Cl)c2C(=O)c2c(Cl)cccc21
T/C (dose: 100.0 mg/kg/injection, schedule: Q04DX002 (ip), vehicle: Klucel (hydroxypropylcellulose) (HPC)): 100 % of control and 91 % of control | T/C (dose: 200.0 mg/kg/injection, schedule: Q04DX002 (ip), vehicle: Klucel (hydroxypropylcellulose) (HPC)): 94 % of control | T/C (dose: 400.0 mg/kg/injection, schedule: Q04DX002 (ip), vehicle: Klucel (hydroxypropylcellulose) (HPC)): 102 % of control and 113 % of control

Nc1ccc(S(=O)(=O)O)c2ccccc12
T/C (dose: 50.0 mg/kg/injection, schedule: Q01DX001 (ip), vehicle: saline): 94 % of control | T/C [2]: 94 % of control | T/C [3]: 103 % of control | T/C [4]: 94 % of control

CN(C)c1ccc(O)c2c1CC1CC3C(N(C)C)C(=O)C(C(N)=O)=C(O)C3(O)C(=O)C1=C2O (stereo not drawn)
T/C (dose: 100.0 mg/kg/injection, schedule: Q04DX003 (ip), vehicle: saline with Tween-80): 100 % of control | T/C (dose: 200.0 mg/kg/injection, schedule: Q04DX003 (ip), vehicle: saline with Tween-80): 108 % of control

CN(C)C(Cc1ccccc1)(C(=O)O)c1ccccc1 (stereo not drawn)
T/C [2]: 96 % of control | T/C [3]: 91 % of control | T/C [4]: 88 % of control

O=C(CCl)COP(=O)(O)O
T/C (dose: 6.25 mg/kg/injection, schedule: Q01DX009 (ip), vehicle: other): 102 % of control | T/C (dose: 12.5 mg/kg/injection, schedule: Q01DX001 (ip), vehicle: other): 102 % of control | T/C (dose: 12.5 mg/kg/injection, schedule: Q01DX009 (ip), vehicle: other): 91 % of control | T/C (dose: 12.5 mg/kg/injection, schedule: Q04DX003 (ip), vehicle: other): 91 % of control | T/C (dose: 25.0 mg/kg/injection, schedule: Q01DX001 (ip), vehicle: other): 91 % of control | T/C (dose: 25.0 mg/kg/injection, schedule: Q01DX009 (ip), vehicle: other): 101 % of control | T/C (dose: 25.0 mg/kg/injection, schedule: Q04DX003 (ip), vehicle: other): 88 % of control | T/C (dose: 50.0 mg/kg/injection, schedule: Q01DX001 (ip), vehicle: other): 96 % of control | T/C (dose: 50.0 mg/kg/injection, schedule: Q01DX009 (ip), vehicle: other): 114 % of control | T/C (dose: 50.0 mg/kg/injection, schedule: Q04DX003 (ip), vehicle: other): 93 % of control | T/C [5]: 89 % of control | T/C [1]: 106 % of control

Clc1cnc(C(Cl)(Cl)Cl)c(Cl)n1 (tested in a mixture with another compound)
T/C (dose: 12.5 mg/kg/injection, schedule: Q01DX009 (ip), vehicle: Klucel (hydroxypropylcellulose) (HPC)): 94 % of control | T/C (dose: 25.0 mg/kg/injection, schedule: Q01DX009 (ip), vehicle: Klucel (hydroxypropylcellulose) (HPC)): 97 % of control | T/C (dose: 50.0 mg/kg/injection, schedule: Q01DX009 (ip), vehicle: Klucel (hydroxypropylcellulose) (HPC)): 100 % of control

COc1c2c(c(OC)c3ccccc13)C(=O)C1=C(CC=CC1)C2=O
T/C (dose: 50.0 mg/kg/injection, schedule: Q01DX005 (ip), vehicle: water): 94 % of control | T/C (dose: 100.0 mg/kg/injection, schedule: Q01DX005 (ip), vehicle: water): 87 % of control | T/C (dose: 200.0 mg/kg/injection, schedule: Q01DX005 (ip), vehicle: water): 92 % of control

O=C(O)C1(C(=O)O)CCC1c1ccccc1 (stereo not drawn)
T/C [2]: 94 % of control | T/C [3]: 113 % of control | T/C [4]: 102 % of control

O=C(O)[C@@H]1C[C@@H](O)CN1
T/C [2]: 87 % of control | T/C [3]: 100 % of control | T/C [4]: 94 % of control

CN(C)c1ccc(C=C2c3ccccc3-c3ccccc32)cc1
T/C [6]: 97 % of control | T/C [7]: 96 % of control | T/C [8]: 94 % of control

CC(C)OC(C)(C=O)OC(=O)Nc1cccc2ccccc12 (stereo not drawn)
T/C (dose: 100.0 mg/kg/injection, schedule: Q04DX002 (sc), vehicle: olive oil, sesame oil, peanut oil): 100 % of control | T/C (dose: 200.0 mg/kg/injection, schedule: Q04DX002 (sc), vehicle: olive oil, sesame oil, peanut oil): 95 % of control | T/C (dose: 400.0 mg/kg/injection, schedule: Q04DX002 (sc), vehicle: olive oil, sesame oil, peanut oil): 103 % of control

CC(C)(C)C1CCC(S(C)(=O)=O)C(Cl)C1 (stereo not drawn)
T/C [9]: 110 % of control | T/C [10]: 102 % of control | T/C [11]: 106 % of control | T/C (dose: 200.0 mg/kg/injection, schedule: Q04DX003 (ip), vehicle: saline): 96 % of control | T/C [12]: 102 % of control | T/C (dose: 400.0 mg/kg/injection, schedule: Q04DX003 (ip), vehicle: saline): 105 % of control

CC1C(=O)NN=C1c1ccc([N+](=O)[O-])cc1 (stereo not drawn)
T/C [13]: 100 % of control | T/C [14]: 100 % of control | T/C [15]: 94 % of control

OCC(F)(F)C(F)(F)C(F)(F)CO
T/C [9]: 87 % of control | T/C [11]: 90 % of control | T/C [12]: 100 % of control

CCC1(Cc2ccsc2)C(=O)NC(=O)NC1=O
T/C [13]: 103 % of control | T/C [14]: 94 % of control | T/C [15]: 100 % of control

CCOC(=O)c1ccc(NC(=O)Oc2ccc(OC)cc2)cc1
T/C (dose: 100.0 mg/kg/injection, schedule: Q01DX009 (ip), vehicle: Klucel (hydroxypropylcellulose) (HPC)): 96 % of control | T/C (dose: 200.0 mg/kg/injection, schedule: Q01DX009 (ip), vehicle: Klucel (hydroxypropylcellulose) (HPC)): 100 % of control | T/C (dose: 400.0 mg/kg/injection, schedule: Q01DX009 (ip), vehicle: Klucel (hydroxypropylcellulose) (HPC)): 98 % of control

O=NN(CCCl)C(=O)NC1CCC(Br)CC1 (stereo not drawn)
T/C (dose: 10.0 mg/kg/injection, schedule: Q01DX001 (ip), vehicle: saline with Tween-80): 122 % of control | T/C (dose: 22.0 mg/kg/injection, schedule: Q01DX001 (ip), vehicle: saline with Tween-80): 150 % of control | T/C (dose: 33.5 mg/kg/injection, schedule: Q01DX001 (ip), vehicle: saline with Tween-80): 197 % of control | T/C (dose: 50.0 mg/kg/injection, schedule: Q01DX001 (ip), vehicle: saline with Tween-80): 455 % of control | T/C (dose: 75.0 mg/kg/injection, schedule: Q01DX001 (ip), vehicle: saline with Tween-80): 455 % of control | T/C (dose: 112.0 mg/kg/injection, schedule: Q01DX001 (ip), vehicle: saline with Tween-80): 420 % of control | T/C (dose: 252.0 mg/kg/injection, schedule: Q01DX001 (ip), vehicle: saline with Tween-80): 208 % of control

CC(=O)c1cccc(NC(=O)c2ccc(C(=O)Nc3cccc(C(C)=O)c3)cc2)c1
T/C [5]: 104 % of control | T/C (dose: 200.0 mg/kg/injection, schedule: Q01DX001 (ip), vehicle: other): 102 % of control | T/C (dose: 400.0 mg/kg/injection, schedule: Q01DX001 (ip), vehicle: other): 89 % of control

COC(=O)C(CC(C)C)NC(=O)C(Cc1ccccc1)NC(=O)C(CO)NC(=O)OCc1ccccc1 (stereo not drawn) (Cbz-Ser-Phe-Leu-OMe; configuration not given here)
T/C [2]: 93 % of control | T/C [3]: 93 % of control | T/C [4]: 94 % of control

NC(=S)NNC=O
T/C [6]: 95 % of control | T/C [7]: 92 % of control | T/C [8]: 100 % of control

CCCCCc1cc[n+](CC(=O)c2ccccc2)cc1
T/C (dose: 25.0 mg/kg/injection, schedule: Q04DX003 (ip), vehicle: saline): 100 % of control | T/C [2]: 93 % of control | T/C [10]: 87 % of control

CC1(C)Oc2c(ccc(O)c2CN2CCOCC2)C2=C1CCCC2
T/C [13]: 93 % of control | T/C [14]: 96 % of control | T/C [15]: 91 % of control
